Results from patent US20210045385A1, “PYRIDAZINONE-SUBSTITUTED KETOXIMES AS HERBICIDES” (FMC Corporation, priority 2018, published 2021).

What was measured:
Format in all cases: in vivo
[1] = tested on: Italian ryegrass (Lolium multiflorum); assay: Test A preemergence, visual plant response rating; settings: approx. 10 days
Outline: (§1)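 Ratings 0–100 (100 = complete control), visual, vs untreated controls at ~10 days. Application pre- or postemergence; solvent mixture with surfactant; loam/sand medium.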

[2] = tested on: barnyardgrass (Echinochloa crus-galli); assay: Test A preemergence, visual plant response rating; settings: approx. 10 days
Outline: as §1

[3] = tested on: foxtail, green (green foxtail, Setaria viridis); assay: Test A preemergence, visual plant response rating; settings: approx. 10 days
Outline: as §1

kochia (Kochia scoparia) [4] = assay: Test A preemergence, visual plant response rating; settings: approx. 10 days
Outline: as §1

[5] = tested on: pigweed (Amaranthus retroflexus); assay: Test A preemergence, visual plant response rating; settings: approx. 10 days
Outline: as §1

[6] = tested on: ragweed (common ragweed, Ambrosia elatior); assay: Test A preemergence, visual plant response rating; settings: approx. 10 days
Outline: as §1

[7] = tested on: Italian ryegrass (Lolium multiflorum); assay: Test A postemergence, visual plant response rating; settings: for Ryegrass, Italian plant response rating (0 to 100 scale): 500 g ai/ha, postemergence, 0 is no effect, 100 is complete control; for Ryegrass, Italian plant response rating: Postemergence, 125 g ai/ha, 0 to 100 scale (0 no effect, 100 complete control)
Outline: as §1

[8] = tested on: barnyardgrass (Echinochloa crus-galli); assay: Test A postemergence, visual plant response rating; settings: for Barnyardgrass plant response rating (0 to 100 scale): 500 g ai/ha, postemergence, 0 is no effect, 100 is complete control; for Barnyardgrass plant response rating: Postemergence, 125 g ai/ha, 0 to 100 scale (0 no effect, 100 complete control)
Outline: as §1

[9] = tested on: blackgrass (Alopecurus myosuroides); assay: Test A postemergence, visual plant response rating; settings: for Blackgrass plant response rating (0 to 100 scale): 500 g ai/ha, postemergence, 0 is no effect, 100 is complete control; for Blackgrass plant response rating: Postemergence, 125 g ai/ha, 0 to 100 scale (0 no effect, 100 complete control)
Outline: as §1

corn (Zea mays) = assay: Test A postemergence, visual plant response rating; settings: for Corn plant response rating (0 to 100 scale): 500 g ai/ha, postemergence, 0 is no effect, 100 is complete control; for Corn plant response rating: Postemergence, 125 g ai/ha, 0 to 100 scale (0 no effect, 100 complete control)
Outline: as §1

[10] = tested on: foxtail, green (green foxtail, Setaria viridis); assay: Test A postemergence, visual plant response rating; settings: for Foxtail, Green plant response rating (0 to 100 scale): 500 g ai/ha, postemergence, 0 is no effect, 100 is complete control; for Foxtail, Green plant response rating: Postemergence, 125 g ai/ha, 0 to 100 scale (0 no effect, 100 complete control)
Outline: as §1

[11] = tested on: galium (catchweed bedstraw, Galium aparine); assay: Test A postemergence, visual plant response rating; settings: for Galium plant response rating (0 to 100 scale): 500 g ai/ha, postemergence, 0 is no effect, 100 is complete control; for Galium plant response rating: Postemergence, 125 g ai/ha, 0 to 100 scale (0 no effect, 100 complete control)
Outline: as §1

kochia (Kochia scoparia) [12] = assay: Test A postemergence, visual plant response rating; settings: for Kochia plant response rating (0 to 100 scale): 500 g ai/ha, postemergence, 0 is no effect, 100 is complete control; for Kochia plant response rating: Postemergence, 125 g ai/ha, 0 to 100 scale (0 no effect, 100 complete control)
Outline: as §1

[13] = tested on: pigweed (Amaranthus retroflexus); assay: Test A postemergence, visual plant response rating; settings: for Pigweed plant response rating (0 to 100 scale): 500 g ai/ha, postemergence, 0 is no effect, 100 is complete control; for Pigweed plant response rating: Postemergence, 125 g ai/ha, 0 to 100 scale (0 no effect, 100 complete control)
Outline: as §1

[14] = tested on: ragweed (common ragweed, Ambrosia elatior); assay: Test A postemergence, visual plant response rating; settings: for Ragweed plant response rating (0 to 100 scale): 500 g ai/ha, postemergence, 0 is no effect, 100 is complete control; for Ragweed plant response rating: Postemergence, 125 g ai/ha, 0 to 100 scale (0 no effect, 100 complete control)
Outline: as §1

[15] = tested on: wheat (Triticum aestivum); assay: Test A postemergence, visual plant response rating; settings: for Wheat plant response rating (0 to 100 scale): 500 g ai/ha, postemergence, 0 is no effect, 100 is complete control; for Wheat plant response rating: Postemergence, 125 g ai/ha, 0 to 100 scale (0 no effect, 100 complete control)
Outline: as §1

[16] = tested on: barnyardgrass (Echinochloa crus-galli); assay: Test B flooded paddy test, visual plant response rating; settings: 250 g ai/ha, Flood, applied to paddy water, 2-leaf stage, evaluated after 13 to 15 days
Outline: (§2)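 Visual scores compare treated plants with controls after 13 to 15 days of greenhouse growth. Treatment was made into paddy water standing 3 cm above the soil, with plants at the 2-leaf stage and flooding maintained throughout.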

[17] = tested on: ducksalad (Heteranhera limosa); assay: as above; settings: 250 g ai/ha, Flood, applied to paddy water, 2-leaf stage, evaluated after 13 to 15 days
Outline: as §2

rice (Oryza sativa) = assay: as above; settings: 250 g ai/ha, Flood, applied to paddy water, 2-leaf stage, evaluated after 13 to 15 days
Outline: as §2

[18] = tested on: sedge, umbrella (small-flower umbrella sedge, Cyperus difformis); assay: as above; settings: 250 g ai/ha, Flood, applied to paddy water, 2-leaf stage, evaluated after 13 to 15 days
Outline: as §2

Row | Structure (SMILES) | Ryegrass, Italian plant response rating (0 to 100 scale) ([1]; 125 g ai/ha Preemergence) | Ryegrass, Italian plant response rating (0 to 100 scale) ([1]; 500 g ai/ha Preemergence) | Barnyardgrass plant response rating (0 to 100 scale) ([2]; 125 g ai/ha Preemergence) | Barnyardgrass plant response rating (0 to 100 scale) ([2]; 500 g ai/ha Preemergence) | Foxtail, Green plant response rating (0 to 100 scale) ([3]; 125 g ai/ha Preemergence) | Foxtail, Green plant response rating (0 to 100 scale) ([3]; 500 g ai/ha Preemergence) | Kochia plant response rating (0 to 100 scale) (kochia (Kochia scoparia) [4]; 125 g ai/ha Preemergence) | Kochia plant response rating (0 to 100 scale) (kochia (Kochia scoparia) [4]; 500 g ai/ha Preemergence) | Pigweed plant response rating (0 to 100 scale) ([5]; 125 g ai/ha Preemergence) | Pigweed plant response rating (0 to 100 scale) ([5]; 500 g ai/ha Preemergence) | Ragweed plant response rating (0 to 100 scale) ([6]; 125 g ai/ha Preemergence) | Ragweed plant response rating (0 to 100 scale) ([6]; 500 g ai/ha Preemergence) | Ryegrass, Italian plant response rating (0 to 100 scale) [7] | Ryegrass, Italian plant response rating [7] | Barnyardgrass plant response rating (0 to 100 scale) [8] | Barnyardgrass plant response rating [8] | Blackgrass plant response rating (0 to 100 scale) [9] | Blackgrass plant response rating [9] | Corn plant response rating (0 to 100 scale) (corn (Zea mays)) | Corn plant response rating (corn (Zea mays)) | also measured
1 | CCO/N=C(/c1cccc(Cl)c1)c1c(O)c(C)nn(C)c1=O [Compound 9] | 20 | 40 | 0 | 50 | 20 | 40 | 10 | 60 | 40 | 90 | 80 | 90 | 60 | 40 | 20 | 0 | 20 | 0 | 10 | 0 | Foxtail, Green plant response rating (0 to 100 scale) [10]: 30; Foxtail, Green plant response rating [10]: 10; Galium plant response rating (0 to 100 scale) [11]: 90; Galium plant response rating [11]: 80; Kochia plant response rating (0 to 100 scale) (kochia (Kochia scoparia) [12]): 60; Kochia plant response rating (kochia (Kochia scoparia) [12]): 10; Pigweed plant response rating (0 to 100 scale) [13]: 20; Pigweed plant response rating [13]: 0; Ragweed plant response rating (0 to 100 scale) [14]: 80; Ragweed plant response rating [14]: 30; Wheat plant response rating (0 to 100 scale) [15]: 0; Wheat plant response rating [15]: 0; Plant response rating, Barnyardgrass (0 to 100 scale, 0 is no effect, 100 is complete control) [16]: 0; Plant response rating, Ducksalad (0 to 100 scale, 0 is no effect, 100 is complete control) [17]: 0; Plant response rating, Rice (0 to 100 scale, 0 is no effect, 100 is complete control) (rice (Oryza sativa)): 0; Plant response rating, Sedge, Umbrella (0 to 100 scale, 0 is no effect, 100 is complete control) [18]: 0
2 | Cc1cccc(/C(=N\O)c2c(O)c(C)nn(C)c2=O)c1 [Compound 21] | 0 | 0 | 0 | 0 | 0 | 0 | 0 | 0 | 0 | 0 | 0 | 0 | 20 | 0 | 0 | 0 | 0 | 0 | 0 | 0 | Foxtail, Green plant response rating (0 to 100 scale) [10]: 0; Foxtail, Green plant response rating [10]: 0; Galium plant response rating (0 to 100 scale) [11]: 80; Galium plant response rating [11]: 0; Kochia plant response rating (0 to 100 scale) (kochia (Kochia scoparia) [12]): 10; Kochia plant response rating (kochia (Kochia scoparia) [12]): 0; Pigweed plant response rating (0 to 100 scale) [13]: 60; Pigweed plant response rating [13]: 0; Ragweed plant response rating (0 to 100 scale) [14]: 20; Ragweed plant response rating [14]: 0; Wheat plant response rating (0 to 100 scale) [15]: 0; Wheat plant response rating [15]: 0; Plant response rating, Barnyardgrass (0 to 100 scale, 0 is no effect, 100 is complete control) [16]: 0; Plant response rating, Ducksalad (0 to 100 scale, 0 is no effect, 100 is complete control) [17]: 0; Plant response rating, Rice (0 to 100 scale, 0 is no effect, 100 is complete control) (rice (Oryza sativa)): 0; Plant response rating, Sedge, Umbrella (0 to 100 scale, 0 is no effect, 100 is complete control) [18]: 0
3 | CCO/N=C(\c1cccc(Cl)c1)c1c(O)c(C)nn(C)c1=O [Compound 8] | 50 | 50 | 0 | 20 | 10 | 30 | 10 | 60 | 30 | 90 | 0 | 100 | 60 | 30 | 10 | 0 | 20 | 0 | 0 | 0 | Foxtail, Green plant response rating (0 to 100 scale) [10]: 20; Foxtail, Green plant response rating [10]: 10; Galium plant response rating (0 to 100 scale) [11]: 90; Galium plant response rating [11]: 80; Kochia plant response rating (0 to 100 scale) (kochia (Kochia scoparia) [12]): 70; Kochia plant response rating (kochia (Kochia scoparia) [12]): 10; Pigweed plant response rating (0 to 100 scale) [13]: 20; Pigweed plant response rating [13]: 0; Ragweed plant response rating (0 to 100 scale) [14]: 80; Ragweed plant response rating [14]: 20; Wheat plant response rating (0 to 100 scale) [15]: 0; Wheat plant response rating [15]: 0; Plant response rating, Barnyardgrass (0 to 100 scale, 0 is no effect, 100 is complete control) [16]: 0; Plant response rating, Ducksalad (0 to 100 scale, 0 is no effect, 100 is complete control) [17]: 0; Plant response rating, Rice (0 to 100 scale, 0 is no effect, 100 is complete control) (rice (Oryza sativa)): 0; Plant response rating, Sedge, Umbrella (0 to 100 scale, 0 is no effect, 100 is complete control) [18]: 0
4 | CO/N=C(/c1cc(C)ccc1C)c1c(O)c(C)nn(C)c1=O [Compound 30] | 20 | 50 | 0 | 50 | 0 | 60 | 0 | 30 | 30 | 80 | 20 | 70 | 70 | 40 | 40 | 20 | 80 | 10 | 0 | 0 | Foxtail, Green plant response rating (0 to 100 scale) [10]: 40; Foxtail, Green plant response rating [10]: 0; Galium plant response rating (0 to 100 scale) [11]: 80; Galium plant response rating [11]: 60; Kochia plant response rating (0 to 100 scale) (kochia (Kochia scoparia) [12]): 30; Kochia plant response rating (kochia (Kochia scoparia) [12]): 10; Pigweed plant response rating (0 to 100 scale) [13]: 50; Pigweed plant response rating [13]: 30; Ragweed plant response rating (0 to 100 scale) [14]: 60; Ragweed plant response rating [14]: 40; Wheat plant response rating (0 to 100 scale) [15]: 30; Wheat plant response rating [15]: 10; Plant response rating, Barnyardgrass (0 to 100 scale, 0 is no effect, 100 is complete control) [16]: 0; Plant response rating, Ducksalad (0 to 100 scale, 0 is no effect, 100 is complete control) [17]: 0; Plant response rating, Rice (0 to 100 scale, 0 is no effect, 100 is complete control) (rice (Oryza sativa)): 0; Plant response rating, Sedge, Umbrella (0 to 100 scale, 0 is no effect, 100 is complete control) [18]: 0
